Details: rat; liver microsomes; pH 7.4; 15.0 min; 1.0 µM

half-life | Structure (SMILES)
6.24 min | CCN(CC)c1ccc(Nc2nc(Cl)ncc2Br)cc1
> 30 min | CC(=O)c1ccc(N2CCN(S(=O)(=O)c3ccc4c(c3)n(C)c(=O)n4C)CC2)cc1
> 30 min | CCN(CC)CCCNC(=O)c1oc2c(c1C)-c1nn(Cc3ccc(Cl)cc3)cc1CC2
0.96 min | Cc1cccc(-n2ncc3c2CCCC3NC(=O)c2c(F)ccc(F)c2F)c1C (configuration not stated)
2.56 min | O=C1CCc2ccc(OCCCCN3CCN(c4cccc(Cl)c4Cl)CC3)cc2N1
> 30 min | COC(=O)c1ccnc(-c2cc(C(=O)Nc3ccc(C4(N)CC4)cc3)ccn2)c1
3.45 min | COc1ccccc1CNC(=O)CCCn1nc(C)c2c(C)n(-c3ccc(C)cc3)nc2c1=O
> 30 min | O=C(O)CCC(=O)Nc1nc(-c2ccccc2)cs1
> 30 min | CC(=O)Nc1ncc(S(=O)(=O)Nc2cnccc2C(=O)Nc2nc(-c3ccccc3)cs2)s1
1.55 min | O=C(c1cc2ccccc2[nH]1)N1CCc2c(n(Cc3cccnc3)n(CCc3ccccc3)c2=O)C1
5.9 min | Fc1cc(Nc2nc(-c3ccncc3)nc3ccccc23)ccc1N1CCCCC1
1.7 min | CCOC(=O)c1ccc(-n2cnc3cc(C(=O)N4CCCCC4)ccc32)cc1
23.2 min | C[C@]1(CO)CN(c2cc(C(=O)Nc3ccc4c(c3)-c3c(c(C(N)=O)nn3-c3ccc(F)cc3)CC4)c(Cl)cn2)C[C@@]1(C)CO
2.9 min | Cc1cccc(-n2cnc3cc(C(=O)N4CCCCCC4)ccc32)c1
8.4 min | O=C(Nc1nc(-c2ccccc2)cs1)c1ccncc1NS(=O)(=O)c1ccc2ccccc2c1
> 30 min | COc1ccc(Cl)cc1C(=O)Nc1ccc(NC(=O)c2ccco2)cc1
> 30 min | CN(C)C(=O)c1ccc(-c2cc[nH]c(=O)c2N)cc1
4.07 min | CC(C)(C)C(=O)N1CCN(c2nccc(Nc3ccccc3Cl)n2)CC1
3.54 min | Cc1cccc(Nc2nc(NCc3ccco3)c3ccccc3n2)c1
7.59 min | N#Cc1c(NC(=O)c2cccc3ccccc23)sc2c1CCCC2
6.99 min | Clc1ccccc1-c1nc(NCc2ccc(-c3cccnc3)cc2)c2ccccc2n1
> 30 min | CC(=O)NCc1ccc(-c2csc(Nc3cc(C)cc(C)c3)n2)o1
26 min | Cc1cccc2c1NC(=O)/C2=C/c1cc(Cl)c(O)c(Cl)c1
1.6 min | COc1ccc(C2Nc3ccccc3C(=O)N2Cc2ccco2)cc1COc1c(C)cc(NC(C)=O)cc1C (configuration not stated)
1.9 min | Cc1cc(-c2nnc3n2CCCCC3)c(C)n1-c1ccc(Cl)cc1

half-life | Structure (SMILES)
29.7 min | Nc1nc2c(s1)C(c1ccc(F)c(F)c1)CC(=O)N2 (configuration not stated)
> 30 min | CN(C)C(=O)c1cc(-c2ccc(S(C)(=O)=O)cc2)c2cnn(C)c2n1
3.09 min | CC(C)Oc1cccc(-c2csc(N3CCC(C(N)=O)CC3)n2)c1
1.8 min | O=C(c1cnccn1)N1CCC2(CCCN(C(c3ccccc3)c3ccccc3)C2)CC1
> 30 min | Nc1nc(N)c2cc(Sc3ccc4ccccc4c3)ccc2n1
12.7 min | O=C(NCc1cccs1)c1cn2cc(-c3ccccc3)sc2n1
2.1 min | CCc1ccc(NC(=O)c2[nH]c(C)c(C(C)=O)c2C)cc1[S+](=O)([O-])N1CCCCCC1
> 30 min | c1coc(-c2nc3ccncc3[nH]2)c1
27.2 min | CCCc1cc(C)[nH]c(=O)c1CNC(=O)c1cc(-c2ccnc(N3CCN(C)CC3)c2)cc2c1cnn2C(C)C
16.4 min | COC(=O)CNC(=O)c1nc(-c2ccc(Cl)nc2)c2cnccn12
> 30 min | Cc1ccc(S(=O)(=O)Nc2cnccc2C(=O)Nc2nc(-c3cccc(Cl)c3)cs2)cc1
9.7 min | CC(C)(C)n1cnc2cc(C(=O)N3CCCCC3)ccc21
18.7 min | O=C(Nc1ccc(OC(F)(F)F)cc1)c1sccc1NCc1ccnc2ccccc12
5.65 min | O=C(Nc1cccc(C(F)(F)F)c1)Nc1cc(S(=O)(=O)NC2CC2)ccc1-c1ccsc1
22 min | Cc1cc(-c2nc(Nc3ccc(F)c(F)c3)c3ccccc3n2)ccn1
3.1 min | O=C(Nc1ccc(-c2ccccc2)cc1)[C@H](Cc1ccc(O[S+](=O)([O-])c2cccc3cnccc23)cc1)N[S+](=O)([O-])c1cccc2cnccc12
1.6 min | Cc1ccc(C)c(S(=O)(=O)NCC2CN(Cc3ccccc3)CCO2)c1 (configuration not stated)
7.47 min | c1ccc(Nc2cc3c(cn2)CN(Cc2c[nH]c4ccccc24)CCN3)cc1
> 30 min | O=C(Nc1nc(-c2ccccn2)cs1)c1cccc(-n2cnnn2)c1
5.95 min | COc1cccc(CN2CCCC(c3nc(-c4ccncc4)ncc3-c3ccccc3)C2)c1O (configuration not stated)
13 min | O=[S+]([O-])(Nc1ccccc1)c1ccc(NCc2cccc(C(F)(F)F)c2Cl)cc1
2.74 min | FC(F)(F)c1ccccc1-c1nc(NCc2ccccc2)c2ccccc2n1
9.8 min | C=Cc1ccc(Cn2c(C(=O)O)c(CNCc3ccccc3)c3ccc(OC)cc32)cc1
3.5 min | Cc1ccc(S(=O)(=O)Nc2ccccc2C(=O)Nc2cccc(-c3ccccc3)c2)cc1
1.6 min | Cc1ccc(S(=O)(=O)Nc2ccccc2CNc2nc(-c3ccccc3)cs2)cc1

half-life | Structure (SMILES)
1.92 min | O=c1cc(-c2ccccc2)oc2cc(O)cc(O)c12
1.9 min | Cc1cc(-c2nnc3n2CCCCC3)c(C)n1-c1ccc(Cl)c(Cl)c1
15.7 min | CN(C)c1cccc(-c2nnc(N3CCC(C(N)=O)CC3)s2)c1
> 30 min | Cc1ccc(S(=O)(=O)Nc2cnccc2C(=O)Nc2nc(-c3ccc(Cl)c(Cl)c3)cs2)cc1
1.64 min | CCOc1ccccc1CNS(=O)(=O)c1ccc(-c2cnc(C3CC3)o2)cc1
18.7 min | CC(C)(C)C1CCc2[nH]c3ccccc3c(=O)c2C1 (configuration not stated)
> 30 min | CC(=O)c1c(C)[nH]c(C(=O)Nc2cccc([S+](=O)([O-])Nc3ccncc3)c2)c1C
2.56 min | CN1CCN(C(c2ccccc2)c2ccccc2)CC1
> 30 min | COc1cccc(CNc2ccc(S(=O)(=O)Nc3ccc(N4CCNCC4)nc3)cc2)c1O
> 30 min | C[C@@H](O)CNC(C)(C)CC(=O)N[C@@H]1CCc2ccccc2N(Cc2ccc(-c3ccccc3-c3nn[nH]n3)cc2)C1=O
12 min | Cc1cc(NS(=O)(=O)c2ccc(NCCc3ccc(Cl)c(Cl)c3)cc2)no1
12 min | Cc1ccc(Nc2nc(-c3ccncc3)nc3ccccc23)cc1F
8.6 min | Cc1sc(NC(=O)Cc2ccc3c(c2)OCO3)nc1-c1ccc2c(c1)CCN2C(=O)C1CCCCC1
2 min | CC(C)(C)OC(=O)N[C@@H](Cc1ccc(OS(=O)(=O)c2cccc3cnccc23)cc1)C(=O)N1CCCN(C(=O)OC(C)(C)C)CC1
23.9 min | COc1ccc(-n2nc(C3CCCN(C(=O)c4ccc(C)cc4)C3)[nH]c2=O)cc1 (configuration not stated)
1.53 min | O=C(Nc1ccccc1)C1CCN(c2nc(-c3ccc(Br)cc3)cs2)CC1
9.14 min | N#CC1(c2ccc(NC(=O)c3cccnc3NCc3ccncc3)cc2)CCCC1
> 30 min | CCN1CCc2c(sc(NC(=O)Nc3ccc(Cl)c(Cl)c3)c2C(N)=O)C1
1.6 min | c1cnc(N2CCN(Cc3c[nH]c4ccccc34)CC2)nc1
9.7 min | COc1c(NS(=O)(=O)c2ccc(C)cc2)cccc1C(=O)Nc1nc(-c2ccccc2)cs1
18.8 min | CC(NCc1ccc2c(c1)nc(NC(=O)c1ccc(-c3cn[nH]c3)s1)n2CC(C)(C)O)C(C)(C)C (configuration not stated)
> 30 min | O=C(Nc1ccc(Nc2ccncc2)cc1)c1ccc(Nc2ccnc3ccc([N+](=O)[O-])cc23)cc1[N+](=O)[O-]
7.79 min | Cc1ccccc1C(=O)Nc1ccc2c(c1)CCCN2C(=O)c1cccs1
> 30 min | O=C(N/N=C/c1ccc(Sc2ccccn2)o1)c1ccncc1
2.5 min | CCOC(=O)Cc1ccc(NC(=O)n2ncc3cc(Cl)ccc32)cc1

half-life | Structure (SMILES)
20.7 min | COc1cccc(-c2noc(Nc3ccc4c(c3)OCCO4)n2)c1
12 min | O=C(Nc1nc(-c2ccccc2)cs1)c1ccncc1NS(=O)(=O)c1cccs1
13 min | c1ccc2[nH]c(Nc3nc(-c4ccncc4)nc4ccccc34)nc2c1
> 30 min | CCOc1cc(=O)n2c(c1C(=O)Nc1cc(OC)c(Cl)cc1OC)CCCC2
7.4 min | O=C(Nc1nc(-c2ccccc2)cs1)c1ccncc1NS(=O)(=O)c1cccc2cccnc12
24.2 min | O=C(/C=C/c1cn(CC(O)CN2CCCCCC2)c2ccccc12)c1ccc(Br)cc1 (configuration not stated)
> 30 min | O=C(NC[C@H]1Cn2c(-c3ccc(Cl)cc3)cnc2CO1)C1CCCC1
> 30 min | Cc1cc(C)nc(NC(=S)N2CCN(Cc3ccc(C(F)(F)F)cc3)CC2)c1
9 min | CC(C)Oc1ccccc1C(=O)Nc1nc(-c2ccccc2)cs1
1.5 min | c1ccc(-c2csc3ncnc(Sc4nnn(-c5ccccc5)n4)c23)cc1
> 30 min | O=C(C1CCN(c2nc(-c3ccc(Br)cc3)cs2)CC1)N1CCOCC1
7.7 min | O=C1Nc2ccc(C(=O)c3ccco3)cc2/C1=C/c1cc(Cl)c(O)c(Cl)c1
7.6 min | O=C(c1ccc2c(c1)ncn2-c1ccc(C(F)(F)F)cc1)N1CCCCC1
7.7 min | Cc1cnc(-c2ccccc2C(C)C)nc1NCC1CCN(C2COC2)CC1
> 30 min | N#Cc1ccc(NS(=O)(=O)c2ccc(NC(=O)Cc3ccc(Cl)c(Cl)c3)cc2)cc1
1.85 min | CNc1nc(-c2ccc3c(N)n[nH]c3c2)cc(N2C[C@@H](C(=O)NC3CCCCC3)CC[C@@H]2C)n1
10.3 min | Cc1cnc(-c2ccccc2C(C)C)nc1NCc1ccc(-n2ccnn2)cc1
8.5 min | Cn1cc(Br)c(C2N=C(Nc3nc4ccccc4o3)NC3=C2C(=O)CCC3)n1 (configuration not stated)
2.9 min | Cc1ccc(NC(=O)c2ccncc2NS(=O)(=O)c2ccc(C)cc2)cc1
7.26 min | Cc1cc(Br)ccc1NC(=O)C(NS(=O)(=O)c1cccs1)c1ccccc1 (configuration not stated)
18 min | CC(=O)c1c(C)[nH]c(C(=O)Nc2cccc(S(=O)(=O)Nc3ccc(Br)cc3)c2)c1C
1.8 min | COc1ccc(C2Nc3ccccc3C(=O)N2Cc2cccnc2)cc1COc1c(C)cc(NC(C)=O)cc1C (configuration not stated)
1.95 min | Cc1ccc(NC(=O)N(Cc2cn(C)c3ccccc23)C2CCCCC2)cc1C
2.6 min | O=C1CCCC2=C1C1(CCCC1)N=C(Nc1nc3cc(Cl)ccc3o1)N2
> 30 min | Cc1ccc2oc(NC3=NC(c4ccccc4Cl)C4=C(CCCC4=O)N3)nc2c1 (configuration not stated)

Structure (SMILES) | half-life
CN1CC=C(c2nc(Nc3ccc(F)c(F)c3)c3ccccc3n2)CC1 | 3.6 min
Cc1cc(SCc2sc(-c3ccc(C(F)(F)F)c(F)c3)nc2C)ccc1OCC(=O)O | 21 min

From PubChem BioAssay AID1508591
